Here are results for one molecule from patent publication US20130344140A1, “NOVEL PHARMACEUTICAL COMBINATIONS AND METHODS FOR TREATING CANCER” (Agency for Science, Technology and Research, priority 2011, published 2013).

The test system of test [1] is cyclins A2 and B1 mRNAs in wild-type HCT116 cells. The test can be described thus: qRT-PCR of transcript levels in HCT116 cells treated with VX-680. Format: cell-based. The following applies: VX-680-treated wild-type HCT116 (not in p53−/− or p21−/− cells). How it is done: It is noteworthy that cyclins A2 and B1 levels remained high in p53−/− and p21−/− cells even after cells were incubated with VX-680 for 48 h, in contrast to that observed in the wild-type cells.
Total RNA was isolated using the RNeasy kit (Qiagen, Valencia, Calif., USA). The RNA was quantified using spectrophotometric analysis and used for quantitative real-time PCR. The primers used for each target analyzed are available on request. The RNA Master Power SYBR Green Mix (Roche) was used for quantification of mRNA levels.

Test [2] relates to A375, U2OS, A549, HCT116 p53+/+, HCT116 p53−/−, MDA-MB-486 and H1299 cells. Description: Cell cycle distribution (propidium iodide flow cytometry) in a panel of tumor-derived cell lines after VX-680. Format: cell-based. As to conditions: 200 nM VX-680; harvested at 24, 48 and 72 h; p53 wild-type, mutant and deleted lines. How it is done: (a) p53-positive cells (A375, U2OS, A549 and HCT116 p53+/+) and (b) p53-compromised cells (HCT116 p53−/−, […] and H1299) were treated with 200 nM VX-680 and harvested at the indicated time points. Analysis of cell cycle distribution using propidium iodide staining was performed using flow cytometry. Representative DNA profiles are shown. DNA content is indicated. No DNA profile was shown for cells that are 100% apoptotic.
p53 has been implicated in a postmitotic G1 checkpoint in response to various mitotic inhibitors. We examined whether this checkpoint is induced after aurora kinase inhibition by VX-680 and whether tetraploidy is suppressed by wild-type p53 functions. Using a panel of commonly used tumor-derived cell lines expressing either wild-type p53, mutant p53 or a deletion at the p53 gene locus (Table 1), we tested the correlation of p53 gene status to VX-680-induced endoreduplication. These cell lines were treated with VX-680, and harvested for cell cycle analysis at 24, 48 and 72 h.

Test [3] deals with A549 cells. Description: Colony survival assay, A549. The test is classed as cell-based. The following applies: A549, VX-680 treatment alone, 48 h. As for the experimental part: Colonies were counted 2 weeks after recovery in drug-free media. Cells were fixed with glutaraldehyde and stained with crystal violet. Plates are scanned and colonies were counted with an automated image analyzer. Three independent experiments were performed for each cell line.
Each data point represents the mean±S.D.
A total of 1000 cells were plated on each 10 cm plate and allowed to adhere overnight. […] After 48 h, cells were washed and recovered in fresh media for 12 days. Cells were then fixed in 6% glutaraldehyde (Sigma) and stained with crystal violet. Colonies were counted using GelCount™ (Oxford Optronix, Oxford, England). Each condition was carried out in triplicate.

The next test deals with human keratinocytes. The following applies: HEK cells treated with VX-680.
Test [4] deals with A549 cells. Description: Micronuclei formation and γH2AX staining (immunofluorescence microscopy) in A549 cells. Format: cell-based. How it is done: Cells were fixed and stained for γH2AX (green) as described in Materials and Methods in the Examples. Nuclei were counterstained with DAPI blue. Visualization of nuclei and γH2AX positive foci was done by fluorescence microscopy.
Indirect immunofluorescence was carried out as described previously.^14 g-H2AX (Novus Biologicals, Littleton, Colo., USA, NB 100-383) and anti-rabbit Alexa 488-coupled secondary antibody (Molecular Probes, Carlsbad, Calif., USA) were used. Nuclei were counterstained with Hoechst 33342 (Molecular Probes). Immunofluorescence was visualized using Axiolmager Z1 (Zeiss, Gottingen, Germany).

Each structure is given as a SMILES string.

Procedure for human keratinocytes: Primary human keratinocytes were purchased from Invitrogen and cultured in defined keratinocyte serum-free media (Invitrogen). All cell lines were cultured in a CO2 incubator (5% CO2 and 21% O2) at 37° C.
For analysis of cell cycle distribution, cells were harvested and fixed in 70% ethanol/PBS solution. Cells were stained in propidium-iodide containing solution (25 μg/ml propidium iodide supplemented with 1 mg/ml RNase A, in PBS (pH 7.8); Sigma Chemical, St Louis, Mo., USA) for 15 min at room temperature.

Consider `Cc1cc(Nc2cc(N3CCN(C)CC3)nc(Sc3ccc(NC(=O)C4CC4)cc3)n2)[nH]n1` [VX-680, cyclopropane carboxylic acid of {4-[4-(4-methyl-piperazin-1-yl)-6-(5-methyl-2H-pyrazol-3-ylamino)-pyrimidin-2-ylsulphanyl]-phenyl}-amide], for which the “cyclins A2 and B1 mRNAs” value in test [1] is on record as “greatly reduced”. Moreover, the endoreduplication entry in test [2] is on record as “all tumor cell lines undergo endoreduplication”. Moreover, the number of colonies entry in the test with A549 cells [3] is “drastically reduced”. Also, the tetraploidy formation result in the test on human keratinocytes is listed as “significant tetraploid G2/M population”. Further, the “cells containing at least 1 micronucleus per nucleus” value with A549 cells [4] (A549, VX-680 48 h) is on record as “More than 70%”. The “γH2AX staining in the micronuclei” value in the test with A549 cells [4] (A549, VX-680-treated) is given as “increased”.
